Publication PMC7158045 (BMC Plant Biology, 2020)
Structures can show the parent of a compound that is named as a salt. Where two headings read alike, the source gives them in different places.

Tests used:
Experiment in all cases: biochemical
ZmDRIK1-K217-P492 = target: T1, ZmDRIK1-K217-P492 (Zea mays, UniProt C0P4K9)
T1 construct: kinase domain, K217-P492
T1 sequence (C0P4K9 1-514): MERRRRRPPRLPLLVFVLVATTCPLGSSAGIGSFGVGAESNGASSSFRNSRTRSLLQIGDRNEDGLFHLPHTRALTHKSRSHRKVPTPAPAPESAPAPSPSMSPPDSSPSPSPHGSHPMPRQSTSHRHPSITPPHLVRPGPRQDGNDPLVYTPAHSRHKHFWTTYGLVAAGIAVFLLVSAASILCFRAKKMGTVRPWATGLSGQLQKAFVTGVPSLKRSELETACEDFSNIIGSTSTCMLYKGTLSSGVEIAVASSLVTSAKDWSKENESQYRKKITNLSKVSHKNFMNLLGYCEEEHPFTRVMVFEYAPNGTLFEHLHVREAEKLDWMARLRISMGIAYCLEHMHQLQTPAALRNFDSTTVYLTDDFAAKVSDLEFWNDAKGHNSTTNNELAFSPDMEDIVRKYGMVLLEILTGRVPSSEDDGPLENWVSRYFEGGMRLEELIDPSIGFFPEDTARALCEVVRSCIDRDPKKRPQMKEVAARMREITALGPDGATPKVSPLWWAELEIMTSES

ZmDRIK1-R187-P492 = target: T2, ZmDRIK1-R187-P492 (Zea mays, UniProt C0P4K9)
T2 construct: kinase domain, R187-P492
T2 sequence (C0P4K9 1-514): T1 sequence (C0P4K9 1-514)

[1] = target: T3, ZmDRIK1 (DROUGHT RESPONSIVE INACTIVE KINASE 1), kinase domain (Zea mays, UniProt C0P4K9); conditions: DSF, Boltzmann fit, 0.1% DMSO; for ΔTm at 10 µM: read-out: dTm B, sheet ZmDRIK1-R187-S514;; for dTm B: sheet ZmDRIK1-R187-S514;, 10 µM, binder
T3 construct: gene ZEAMMB73_Zm00001d028770; ZmDRIK1-KD R187-S514 (kinase domain)
T3 sequence (C0P4K9 187-514): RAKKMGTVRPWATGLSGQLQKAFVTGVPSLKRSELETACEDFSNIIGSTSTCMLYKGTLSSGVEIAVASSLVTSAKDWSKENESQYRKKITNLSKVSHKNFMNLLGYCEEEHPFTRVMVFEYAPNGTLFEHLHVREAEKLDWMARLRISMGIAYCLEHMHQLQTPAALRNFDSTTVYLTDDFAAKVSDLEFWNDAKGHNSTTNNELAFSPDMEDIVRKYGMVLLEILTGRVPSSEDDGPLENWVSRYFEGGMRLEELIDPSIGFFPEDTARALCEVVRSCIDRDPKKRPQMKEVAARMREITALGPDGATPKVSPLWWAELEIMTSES

ZmDRIK1-K217-S514 = target: T4, ZmDRIK1-K217-S514 (Zea mays, UniProt C0P4K9)
T4 construct: kinase domain, K217-S514
T4 sequence (C0P4K9 1-514): T1 sequence (C0P4K9 1-514)

[2] = read-out: dTm B, sheet ZmDRIK1-K217-P492;, DSF, Boltzmann fit, 0.1% DMSO
[3] = read-out: dTm B, DSF, Boltzmann fit, 0.1% DMSO
[4] = read-out: dTm B, sheet ZmDRIK1-K217-S514;, DSF, Boltzmann fit, 0.1% DMSO

| ΔTm at 10 µM (ZmDRIK1-K217-P492; [2]) | ΔTm at 10 µM (ZmDRIK1-R187-P492; [3]) | ΔTm at 10 µM [1] | ΔTm at 10 µM (ZmDRIK1-K217-S514; [4]) | Structure (SMILES) | also measured |
| --- | --- | --- | --- | --- | --- |
| -0.834 °C | -0.47 °C | -0.534 °C | -0.62 °C | O=C1NC(=O)C(=Cc2ccc(-c3ccc(F)cc3)o2)S1 (stereo in doubt) [CAY10505] | – |
| -0.671 °C | -0.18 °C | -1.07 °C | -0.731 °C | Nc1ncnc2c1c(-c1cccc(OCc3ccccc3)c1)cn2C1CC(CN2CCCC2)C1 (stereo in doubt) [NVP-ADW742] | – |
| -0.621 °C | -0.274 °C | -0.528 °C | -0.375 °C | Cn1cnc(N)c2ncnc1-2 [3-Methyladenine] | – |
| -1.02 °C | -0.741 °C | -1.27 °C | -0.172 °C | CCc1ccc(C=C2SC(=S)NC2=O)cc1 [10058-F4] | – |
| -0.988 °C | -0.295 °C | -0.746 °C | -0.323 °C | Cc1nc(NC(=O)N2CCC[C@H]2C(N)=O)sc1-c1csc(C(C)(C)C)n1 [A66] | – |
| -0.898 °C | -0.417 °C | -0.493 °C | -0.328 °C | Cc1[nH]nc2ccc(-c3cncc(OC[C@@H](N)Cc4ccccc4)c3)cc12 [A-674563] | – |
| -1.24 °C | -0.292 °C | -1.11 °C | -0.453 °C | N#Cc1c(O)c2c(-c3ccc(-c4ccccc4O)cc3)csc2[nH]c1=O [A-769662] | – |
| -0.766 °C | -0.278 °C | -0.997 °C | -0.265 °C | Cc1c(NC(=O)OC[C@@H]2COCCN2)cn2ncnc(Nc3ccc4c(cnn4Cc4cccc(F)c4)c3)c12 [AC480 (BMS-599626)] | – |
| -0.494 °C | -0.159 °C | -0.878 °C | -0.297 °C | CCN1CCN(Cc2ccc(-c3cc4c(N[C@H](C)c5ccccc5)ncnc4[nH]3)cc2)CC1 [AEE788 (NVP-AEE788)] | – |
| -0.987 °C | -0.259 °C | – | -0.362 °C | COc1cc(N2CCC(N3CCN(C)CC3)CC2)ccc1Nc1ncc(Cl)c(Nc2ccccc2P(C)(C)=O)n1 [AP26113] | – |
| -0.776 °C | -0.122 °C | – | -0.322 °C | Cc1ccc(NC(=O)c2cccc(C(C)(C)C#N)c2)cc1Nc1ccc2ncn(C)c(=O)c2c1 [AZ 628] | – |
| 9.06 °C | -10.8 °C | – | -3.2 °C | S=C(NCc1ccc2c(c1)OCO2)N1CCN(c2ncnc3c2oc2ccccc23)CC1 [Amuvatinib (MP-470)] | – |
| -0.378 °C | -0.244 °C | – | 0.245 °C | COc1ccc(-c2ccc3ncc4c(c3c2)n(-c2ccc(N3CCNCC3)c(C(F)(F)F)c2)c(=O)n4C)cn1 [BGT226 (NVP-BGT226)] | – |
| – | – | -14.9 °C | – | COc1cc2nccc(Oc3ccc(NC(=O)C4(C(=O)Nc5ccc(F)cc5)CC4)cc3)c2cc1OC [Cabozantinib malate (XL184)] | – |
| – | -0.336 °C | -0.958 °C | -0.67 °C | C[C@@H](Oc1cc(-c2cnn(C3CCNCC3)c2)cnc1N)c1c(Cl)ccc(F)c1Cl [Crizotinib (PF-02341066)] | – |
| -1.14 °C | -0.533 °C | – | -0.366 °C | CC(C)(C)c1nc(-c2cccc(NS(=O)(=O)c3c(F)cccc3F)c2F)c(-c2ccnc(N)n2)s1 [Dabrafenib (GSK2118436)] | – |
| – | – | – | – | CN1CCN(c2ccc3nc(-c4c(N)c5c(F)cccc5[nH]c4=O)[nH]c3c2)CC1 [Dovitinib (TKI-258) Dilactic Acid] | dTm B [1]: -0.2117 degC |
| – | – | – | – | CN1CCN(c2ccc3nc(-c4c(N)c5c(F)cccc5[nH]c4=O)[nH]c3c2)CC1 [Dovitinib (TKI-258)] | dTm B [1]: -0.003273 degC |
| -14.9 °C | 5.58 °C | – | -14.7 °C | COc1cc2c(Oc3ccc(NC(=O)C4(C(=O)Nc5ccc(F)cc5)CC4)cc3F)ccnc2cc1OCCCN1CCOCC1 [Foretinib (GSK1363089)] | – |
| -0.895 °C | – | 0.265 °C | -0.386 °C | CCc1cc(Nc2nccc(-c3c(-c4ccc(OC)c(C(=O)Nc5c(F)cccc5F)c4)nc4ccccn34)n2)c(OC)cc1N1CCC(N2CCN(S(C)(=O)=O)CC2)CC1 [GSK1904529A] | – |
| – | – | -0.74 °C | – | NS(=O)(=O)c1ccc(N/C=C2\C(=O)Nc3ccc4ncsc4c32)cc1 [GW297361X] | – |

| ΔTm at 10 µM (ZmDRIK1-K217-P492; [2]) | ΔTm at 10 µM (ZmDRIK1-R187-P492; [3]) | ΔTm at 10 µM [1] | ΔTm at 10 µM (ZmDRIK1-K217-S514; [4]) | Structure (SMILES) | also measured |
| --- | --- | --- | --- | --- | --- |
| -18.8 °C | -17.5 °C | – | -13.4 °C | O=c1c(-c2ccc(O)cc2)coc2cc(O)cc(O)c12 [Genistein] | – |
| -0.321 °C | -0.397 °C | – | -0.589 °C | COc1cc2nccc(Oc3ccc(NC(=O)Nc4ccc(F)cc4F)c(F)c3)c2cc1OC [Ki8751] | – |
| – | – | – | – | COc1ncccc1-c1cnn2ccc(N3CCN(C(=O)OC(C)C)CC3)nc12 [LP-935509 (AAK1)] | ΔTm at 10 µM (ZmDRIK1-K217-P492; read-out: dTm B): -0.638 °C; ΔTm at 10 µM (ZmDRIK1-R187-P492; read-out: dTm B): -0.447 °C; ΔTm at 10 µM (ZmDRIK1-K217-S514; read-out: dTm B): -0.536 °C |
| -0.876 °C | 1.26 °C | – | -16 °C | CS(=O)(=O)CCNCc1ccc(-c2ccc3ncnc(Nc4ccc(OCc5cccc(F)c5)c(Cl)c4)c3c2)o1 [Lapatinib (GW-572016) Ditosylate] | – |
| -1.12 °C | – | -1 °C | -0.402 °C | CN(C[C@@H]1COCCO1)S(=O)(=O)Nc1ccc2ccc3ncc(-c4cnn(C)c4)cc3c(=O)c2c1 [MK-2461] | – |
| -1.2 °C | -0.348 °C | – | 0.792 °C | O=C(NOCC1CC1)c1ccc(F)c(F)c1Nc1ccc(I)cc1Cl [PD184352 (CI-1040)] | – |
| – | – | – | – | CN(c1ncccc1CNc1nc(Nc2ccc3c(c2)CC(=O)N3)ncc1C(F)(F)F)S(C)(=O)=O [PF-00562271] | dTm B [1]: -0.8176 degC |
| – | – | – | – | CN(c1ncccc1CNc1nc(Nc2ccc3c(c2)CC(=O)N3)ncc1C(F)(F)F)S(C)(=O)=O [PF-562271] | dTm B [1]: -0.5293 degC |
| -0.666 °C | – | -0.759 °C | -0.219 °C | CCc1cncnc1N1CCN(Cc2nc3ccc(C(F)(F)F)cc3[nH]2)CC1 [PF-4708671] | – |
| – | – | – | – | Cc1ccc(Nc2nccc(N(C)c3ccc4c(C)n(C)nc4c3)n2)cc1S(N)(=O)=O [Pazopanib HCl (GW786034 HCl)] | dTm B [1]: -0.83 degC |
| – | – | – | – | Cc1ccc(Nc2nccc(N(C)c3ccc4c(C)n(C)nc4c3)n2)cc1S(N)(=O)=O [Pazopanib] | dTm B [1]: -0.7756 degC |
| – | – | – | – | COc1cc(Nc2ncc(F)c(Nc3ccc4c(n3)NC(=O)C(C)(C)O4)n2)cc(OC)c1OC [R406 (free base)] | dTm B [1]: -0.8381 degC |
| – | – | – | – | COc1cc(Nc2ncc(F)c(Nc3ccc4c(n3)NC(=O)C(C)(C)O4)n2)cc(OC)c1OC [R406] | dTm B [1]: -1.004 degC |
| 0.39 °C | -2.04 °C | – | 10.1 °C | Cn1c(Nc2ccc(C(F)(F)F)cc2)nc2cc(Oc3ccnc(-c4ncc(C(F)(F)F)[nH]4)c3)ccc21 [RAF265 (CHIR-265)] | – |
| – | – | – | – | N#CC[C@H](C1CCCC1)n1cc(-c2ncnc3[nH]ccc23)cn1 [Ruxolitinib (INCB018424)] | dTm B [1]: -0.7708 degC |
| – | – | – | – | N#CC[C@H](C1CCCC1)n1cc(-c2ncnc3[nH]ccc23)cn1 [S-Ruxolitinib (INCB018424)] | dTm B [1]: -0.5823 degC |
| -0.939 °C | – | -0.884 °C | -0.406 °C | COc1c(C)c(C(=O)c2ccc(N)c(C(=O)O)c2)n2ccccc12 [SSR128129E] | – |
| – | – | -12 °C | – | CNC(=O)c1cc(Oc2ccc(NC(=O)Nc3ccc(Cl)c(C(F)(F)F)c3)cc2)ccn1 [Sorafenib Tosylate] | – |
| – | 0.149 °C | -0.582 °C | 0.285 °C | NC(=O)Nc1sc(-c2ccc(F)cc2)cc1C(N)=O [TPCA-1] | – |
| -0.531 °C | -0.3 °C | – | -0.322 °C | Nc1ccc(-c2ccc3ncc4ccc(=O)n(-c5cccc(C(F)(F)F)c5)c4c3c2)cn1 [Torin 2] | – |
| -0.91 °C | – | -0.649 °C | -0.412 °C | CNC(=O)Nc1ccc(-c2nc(N3CC4CCC(C3)O4)c3cnn(C4CCC5(CC4)OCCO5)c3n2)cc1 [WYE-125132 (WYE-132)] | – |

| Structure (SMILES) | ΔTm at 10 µM (ZmDRIK1-K217-P492; [2]) | ΔTm at 10 µM (ZmDRIK1-R187-P492; [3]) | ΔTm at 10 µM [1] | ΔTm at 10 µM (ZmDRIK1-K217-S514; [4]) | also measured |
| --- | --- | --- | --- | --- | --- |
| Cc1ccccc1-n1c(Cn2ncc3c(N)ncnc32)nc2cccc(C)c2c1=O [PIK-293] | -1.04 °C | -0.695 °C | -1.14 °C | – | – |
